The source of these data is PubChem BioAssay AID651772 (Broad Institute, 2012).

The structures appear in SMILES notation. “And” between values parts separate entries of the source, which are not always exact repeats. Equal entries are not always repeated. Records with an inconclusive call do not appear. The source made the active and inactive calls.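 Rule for the calls: active = compounds whose fitted curve reaches 40% higher CDK2 Ct shift, meaning less CDK2 mRNA, within twice the top dose; inconclusive = flat curve with 30 to 70% opposite effect, or poor fit; inactive = the rest.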

For assay [1], the system named is SK-MEL-5 CDK2 mRNA, RT-qPCR delta-delta-Ct, overnight. As to the kind of experiment: CDK2 transcript decrease in melanoma cells – cell-based, SK-MEL-5, RT-qPCR, dry powder samples, orthogonal assay for MITF inhibitor project, dose response (AID 651772).
Assay in assay [2]: as above
Particulars: SK-MEL-5 CDK2 mRNA, RT-qPCR delta-delta-Ct, overnight.

On to `NC1=CC(=O)c2ccccc2C1=O`, for which the AC40 in assay [1] was 300 nM. For `CN1CCN(C2=C(Nc3ccc(F)cc3F)C(=O)c3ccccc3C2=O)CC1`, in assay [1], the AC40 was 2450 nM. Still for that read-out and setting: then `COC1=C(NS(=O)(=O)c2ccc(Br)cc2)C(=O)c2ccccc2C1=O`, with 4290 nM; and `CN1CCN(C2=C(NS(=O)(=O)c3ccc(Br)s3)C(=O)c3ccccc3C2=O)CC1`, with 7940 nM. `NC1=C(NS(=O)(=O)c2cccs2)C(=O)c2ccccc2C1=O`: the AC40 in assay [1] was 1980 nM. Same read-out and setting: in the case of `COC1=C(NS(=O)(=O)c2cccs2)C(=O)c2ccccc2C1=O` it was 9340 nM; in that of `O=C1C(NS(=O)(=O)c2cccs2)=C(c2ccccc2)C(=O)c2ccccc21`, 3790 nM; in that of `CC(C)N1CCN(C2=C(Nc3ccc(F)cc3F)C(=O)c3ccccc3C2=O)CC1`, 1770 nM. Same read-out and setting: then `NC1=C(NS(=O)(=O)c2ccccc2)C(=O)c2ccccc2C1=O`, with 4390 nM; and `C=CCNC1=C(Cl)C(=O)c2ccccc2C1=O`, with 1460 nM.

Take `O=C1C=C(NS(=O)(=O)c2ccc(Br)cc2)C(=O)c2ccccc21`: in assay [1], the AC40 is 358 nM. Same read-out and setting: then `CCN1CCN(C2=C(Nc3ccc(F)cc3F)C(=O)c3ccccc3C2=O)CC1`, with 1410 nM.

Take `NC1=C(NS(=O)(=O)c2ccc(Br)s2)C(=O)c2ccccc2C1=O`: the outcome in assay [2] was inactive. For the molecule `NC1=C(NC(=O)c2ccccc2)C(=O)c2ccccc2C1=O`, the AC40 in assay [1] was 882 nM. Still for that read-out and setting: then `O=C(NC1=C(Cl)C(=O)c2ccccc2C1=O)c1ccccc1`, with 203 nM; and `NS(=O)(=O)c1ccc(NC2=CC(=O)c3ccccc3C2=O)cc1`, with 141 nM; and `COC1=C(NS(=O)(=O)c2ccccc2)C(=O)c2ccccc2C1=O`, with 3500 nM. Turning to `CC(C)N1CCN(C2=C(Nc3ccc(F)cc3)C(=O)c3ccccc3C2=O)CC1`, the AC40 in assay [1] is 6510 nM. Same read-out and setting: in the case of `Cc1nc2ccccc2n1/N=C/c1ccc([N+](=O)[O-])s1` it was 2920 nM. Still for that read-out and setting: then `O=C1C(Nc2ccc(F)cc2)=C(N2CCCCC2)C(=O)c2ccccc21`, with 8220 nM. In the case of `O=C1C(Nc2ccc(Cl)cc2)=C(N2CCCC2)C(=O)c2ccccc21`, the AC40 in assay [1] is 9910 nM. Regarding `COC1=C(Nc2ccccc2)C(=O)c2ccccc2C1=O`, the AC40 in assay [1] was 204 nM. On the same count and under the same terms, in the case of `CCN1CCN(C2=C(NC(=O)c3ccccc3)C(=O)c3ccccc3C2=O)CC1` it was 2410 nM; in that of `O=C1C(Nc2ccccc2)=C(c2ccccc2)C(=O)c2ccccc21`, 7060 nM.

As for `CCN1CCN(C2=C(NS(=O)(=O)c3ccc(Br)cc3)C(=O)c3ccccc3C2=O)CC1`, the AC40 in assay [1] is 14100 nM. On the same count and under the same terms, then `O=C1C=C(NS(=O)(=O)c2cccs2)C(=O)c2ccccc21`, with 339 nM; and `O=C1C=C(Nc2ccccc2)C(=O)c2ccccc21`, with 571 nM and 394 nM; and `NC1=C(NS(=O)(=O)c2ccc(Br)cc2)C(=O)c2ccccc2C1=O`, with 9610 nM. Still for that read-out and setting: then `O=C1C=C(NS(=O)(=O)c2ccccc2)C(=O)c2ccccc21`, with 138 nM; and `O=C1C=C(Nc2ccc([N+](=O)[O-])c(C(F)(F)F)c2)C(=O)c2ccccc21`, with 78.7 nM.
